The values below come from article PMC11858854, “In Vitro and In Vivo Assessment of Pharmacokinetic Profile of Peramivir in the Context of Inhalation Therapy” (Pharmaceuticals, 2025).

Bounds are passed on as bounds.

Data set [1] concerns NCI-H441 cell model. Put plainly: Bidirectional transport, NCI-H441 air-liquid culture model. Type of data set: in vitro ADME, human. Particulars: NCI-H441, 2 μM. How it is done: NCI-H441 cells were cultured in RPMI-1640 medium (Gibco, Thermo, CA, USA) supplemented with 10% FBS and PS (100 U/mL) at 37 °C in a humidified 5% CO2 incubator, and the medium was changed every other day. […] Then, 850 μL of complete medium (containing 200 nM dexamethasone) was added to the basolateral chamber. […] Subsequently, an air-interfaced culture (AIC) was initiated by supplying 650 μL of culture medium to the basolateral chamber only. The culture medium was replaced every other day.
We removed the liquid from the apical and basolateral of the Transwell, rinsed the cells three times with a buffer containing HBSS, 10 mM Hepes, and 0.1% BSA (Buffer A), and then added Buffer A (100 µL for the apical side and 600 µL for the basolateral side) for pre-incubation for 30 min at 37 °C. For the transport studies in the apical to basolateral (A-B) direction, 100 μL of pre-warmed test solution (Buffer A containing 2 µM positive control drugs or peramivir) was added to the apical side, while 600 μL of pre-warmed assay buffer, a buffer containing HBSS, 10 mM Hepes, and 1% BSA (Buffer B), was added to the basolateral compartment.

Data set [2] deals with T1, human OCT1 (Homo sapiens, UniProt O15245).
T1 construct: host or cells: HEK293 (HEK293-OCT1); control HEK293-MOCK
T1 sequence (O15245 1-554): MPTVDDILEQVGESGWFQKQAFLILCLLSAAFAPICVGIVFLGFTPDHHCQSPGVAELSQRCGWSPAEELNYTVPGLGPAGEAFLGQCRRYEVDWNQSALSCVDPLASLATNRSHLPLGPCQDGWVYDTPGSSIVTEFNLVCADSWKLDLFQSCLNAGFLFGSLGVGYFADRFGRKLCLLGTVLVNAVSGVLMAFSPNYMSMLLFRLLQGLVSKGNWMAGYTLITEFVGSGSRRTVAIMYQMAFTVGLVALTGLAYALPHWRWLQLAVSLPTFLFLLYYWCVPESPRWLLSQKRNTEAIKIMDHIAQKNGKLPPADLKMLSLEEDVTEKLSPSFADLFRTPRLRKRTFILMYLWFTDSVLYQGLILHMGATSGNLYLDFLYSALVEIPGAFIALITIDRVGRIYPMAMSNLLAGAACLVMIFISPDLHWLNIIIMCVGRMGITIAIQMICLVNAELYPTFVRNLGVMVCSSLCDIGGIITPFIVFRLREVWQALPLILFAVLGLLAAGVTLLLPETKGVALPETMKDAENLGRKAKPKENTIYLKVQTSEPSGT
Put plainly: Uptake study, HEK293 cells overexpressing OCT1. In kind it is in vitro ADME. As to the method:
(§1) All cells (HEK293-MOCK, HEK293-OCT1, HEK293-OCT2, MDCK-MOCK, MDCK-OCTN1, and MDCK-OCTN2) were cultured in DMEM medium supplemented with 10% FBS and PS (100 U/mL), at 37 °C in a humidified 5% CO2 incubator. Cells were seeded on 24-well plates at a density of 1 × 10^4 cells/well. For the uptake assay, the DMEM media were removed, and the cells were washed with pre-warmed Hank’s buffer three times (1 mL/well). Subsequent addition of inhibitor-free/inhibitor-containing buffer was pre-incubated for 30 min at 37 °C prior to the initiation of the uptake experiment. After the pre-incubating buffer was removed, 200 μL of pre-warmed test drugs solution (Hank’s buffer containing 10 µM and 50 µM peramivir) or a mixture of test drugs and inhibitor was added into each well, and the plates were incubated at 37 °C for 5 min. At the end of incubation, cells were washed and lysed as described above. The cell lysate was collected and stored at −40 °C for LC-MS/MS analysis and protein measurement. The negative control (MOCK cells) and positive control were included simultaneously.

The target in data set [3] is T2, human OCTN1 (Homo sapiens, UniProt Q9H015).
T2 construct: Huidi Jiang, Zhejiang University; host or cells: MDCK (MDCK-OCTN1); control MDCK-MOCK
T2 sequence (Q9H015 1-551): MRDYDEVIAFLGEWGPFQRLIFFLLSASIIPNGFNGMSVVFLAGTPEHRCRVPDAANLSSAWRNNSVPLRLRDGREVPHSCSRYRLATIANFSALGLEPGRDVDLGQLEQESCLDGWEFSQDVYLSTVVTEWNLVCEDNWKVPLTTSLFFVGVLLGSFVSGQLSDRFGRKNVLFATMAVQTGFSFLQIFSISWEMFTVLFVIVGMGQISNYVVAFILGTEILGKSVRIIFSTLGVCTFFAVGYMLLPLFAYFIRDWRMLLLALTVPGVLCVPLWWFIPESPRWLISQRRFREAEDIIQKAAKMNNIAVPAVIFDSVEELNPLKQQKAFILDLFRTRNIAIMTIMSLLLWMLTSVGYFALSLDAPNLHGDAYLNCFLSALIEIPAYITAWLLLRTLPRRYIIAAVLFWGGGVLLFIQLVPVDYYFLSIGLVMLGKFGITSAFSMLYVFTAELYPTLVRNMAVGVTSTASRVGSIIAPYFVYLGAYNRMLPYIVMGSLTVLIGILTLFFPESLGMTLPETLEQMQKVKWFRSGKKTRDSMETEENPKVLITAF
Put plainly: Uptake study, MDCK cells overexpressing OCTN1. In kind it is in vitro ADME. As to the method:
as §1

The subject of data set [4] is overexpressed cell lines (uptake transporters). Put plainly: Uptake study by overexpression cell lines, 10 μM substrate. The following applies: substrate concentration 10 μM. Type of data set: in vitro ADME. How it is done: as §1
Data set [5] has as its system Calu-3 cell model. Put plainly: Bidirectional transport, Calu-3 air-liquid culture model. Particulars: Calu-3, 2 μM, Mean ± SD, n = 3.
The target in data set [6] is human MDR1 (P-gp) (Homo sapiens, UniProt P08183). Put plainly: Permeability assay, LLC-PK1-MDR1 cells overexpressing P-gp.
Sequence of human MDR1 (P-gp) (P08183 whole entry): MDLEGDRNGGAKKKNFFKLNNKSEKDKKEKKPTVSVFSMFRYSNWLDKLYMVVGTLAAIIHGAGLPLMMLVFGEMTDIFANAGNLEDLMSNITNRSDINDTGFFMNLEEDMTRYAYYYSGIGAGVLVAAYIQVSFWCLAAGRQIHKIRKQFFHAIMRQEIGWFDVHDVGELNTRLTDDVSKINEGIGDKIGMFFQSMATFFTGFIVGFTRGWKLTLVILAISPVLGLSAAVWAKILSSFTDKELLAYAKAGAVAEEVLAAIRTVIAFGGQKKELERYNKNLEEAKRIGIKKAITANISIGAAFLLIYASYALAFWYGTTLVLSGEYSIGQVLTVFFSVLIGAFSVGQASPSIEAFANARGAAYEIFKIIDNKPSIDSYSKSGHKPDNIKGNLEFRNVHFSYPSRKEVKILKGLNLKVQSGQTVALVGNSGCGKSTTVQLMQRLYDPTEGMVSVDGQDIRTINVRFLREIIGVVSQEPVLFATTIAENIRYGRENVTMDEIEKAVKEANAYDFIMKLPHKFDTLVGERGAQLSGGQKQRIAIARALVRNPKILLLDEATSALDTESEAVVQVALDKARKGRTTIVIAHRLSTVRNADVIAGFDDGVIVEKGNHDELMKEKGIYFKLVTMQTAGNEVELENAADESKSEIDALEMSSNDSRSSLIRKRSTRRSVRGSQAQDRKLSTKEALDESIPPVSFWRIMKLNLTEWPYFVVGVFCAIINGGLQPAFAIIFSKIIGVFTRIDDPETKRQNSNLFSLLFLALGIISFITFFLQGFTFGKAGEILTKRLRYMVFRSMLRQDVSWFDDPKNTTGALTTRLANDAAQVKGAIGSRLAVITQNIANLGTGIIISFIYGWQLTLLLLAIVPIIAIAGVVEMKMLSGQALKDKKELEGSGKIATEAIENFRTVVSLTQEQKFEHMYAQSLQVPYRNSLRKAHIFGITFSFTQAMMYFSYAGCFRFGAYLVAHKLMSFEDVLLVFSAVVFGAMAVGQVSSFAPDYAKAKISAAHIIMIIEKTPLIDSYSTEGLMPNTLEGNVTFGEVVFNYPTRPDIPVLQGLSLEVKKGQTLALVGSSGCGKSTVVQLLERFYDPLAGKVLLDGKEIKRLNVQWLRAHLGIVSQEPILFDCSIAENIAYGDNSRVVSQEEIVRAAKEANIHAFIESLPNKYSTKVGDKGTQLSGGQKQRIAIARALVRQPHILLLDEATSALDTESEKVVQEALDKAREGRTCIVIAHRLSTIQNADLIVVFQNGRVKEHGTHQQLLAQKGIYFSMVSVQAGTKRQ
Protocol: When the cell transport system was mature in culture, experiments were performed. […] When assessing permeability in basolateral to apical (B-A) direction, 100 μL of pre-warmed Buffer B and 600 μL of pre-warmed test solutions were added to the apical and basolateral compartments, respectively. The Transwells® were placed in an incubator at 37 °C and 5% CO2 for a duration of 2 h. At the end of the incubation period, the samples in the apical and basolateral sides were collected separately and were briefly kept at a temperature of −40 °C for LC-MS/MS analysis. […] The cells were transferred to Transwell® plates (Corning, NY, USA) at a density of 2 × 10^4 cells/well with 200 μL of cell suspension per well, while 850 μL of complete medium was added to the basolateral chamber. […] The samples were collected separately and were briefly kept at a temperature of −40 °C for LC-MS/MS analysis.
Setting [7] is: LLC-PK1-MDR1, 2 μM, Mean ± SD, n = 3.

For `CCC(CC)[C@H](NC(C)=O)[C@@H]1[C@H](O)[C@@H](C(=O)O)C[C@H]1N=C(N)N` [Peramivir], the ER in data set [1] is reported as 1.11. Moreover, the “Papp A-B” value in data set [1] (Mean ± SD, n = 3) is 1.15 ± 0.16 ×10−6 cm/s; in data set [5], “BLQ”; in data set [6] (setting [7]) it was “BLQ”. Besides, the “Papp B-A” value in data set [1] (Mean ± SD, n = 3) was 1.28 ± 0.36 ×10−6 cm/s; in data set [5] it was “BLQ”; in data set [6] (setting [7]), 0.23 ± 0.03 ×10−6 cm/s. Moreover, the OCT1 substrate status entry in data set [2] (HEK293-OCT1) is recorded as “does not act as a substrate”. The “transporter-mediated uptake ratio (UR)” value in data set [2] (HEK293-OCT1, 50 μM) was < 1. Moreover, the “inhibition ratio (IR)” value in data set [2] (HEK293-OCT1, 50 μM, inhibitor verapamil (200 μM)) is given as “exceeding 98.51%”. The OCTN1 substrate status entry in data set [3] (MDCK-OCTN1) is recorded as “does not conclusively establish peramivir as a substrate for OCTN1”. Besides, the “transporter-mediated uptake ratio (UR value)” value in data set [3] (MDCK-OCTN1, 50 μM) is given as 3.19. For the same compound, the “inhibition ratio (IR value)” value in data set [3] (MDCK-OCTN1, 50 μM, inhibitor quinidine (500 μM)) came out at 40.22%. For the same compound, the “concentration of peramivir in uptake experiment (below the detection limit)” value in data set [4] is reported as < 2 nM. In data set [6] (Papp(B→A) LLC-PK1-MDR1 vs LLC-PK1-MOCK), the “P-gp transporter substrate status” value was “not a substrate of the P-gp transporter”.
